In PubChem BioAssay (NCI) one finds GI50 and TGI data, which are given here for 7 molecules.

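In this assay, cells in 96-well plates receive the compound at five concentrations for 48 hours. Endpoints are linearly interpolated between the surrounding concentrations. GI50 = concentration required for 50% inhibition of growth. At the TGI there is no net growth.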

Some test systems named below: ACHN renal; CAKI-1 renal; K-562 leukemia; MDA-MB-231 breast; PC-3 prostate; SK-MEL-28 melanoma; SK-MEL-5 melanoma; T-47D breast; U251 CNS; UACC-257 melanoma.
Holding throughout (assay): growth of human tumour cells (NCI), 48 h

As for `Cn1c(=O)n(C)c2cc(CNCCNc3ccnc4cc(Cl)ccc34)ccc21`, the GI50 in the test with ACHN renal was 25.4 µM; in the test on CAKI-1 renal it was 36.3 µM; in the test with K-562 leukemia, 6.99 µM; in the test on MDA-MB-231 breast it was 11.2 µM; in the test on PC-3 prostate, 34.6 µM; in the test with SK-MEL-28 melanoma, 16 µM. Also, the GI50 in the test with SK-MEL-5 melanoma was 16.5 µM; in the test on T-47D breast, 28.3 µM; in the test with U251 CNS it was 22.1 µM; in the test on UACC-257 melanoma, 17.6 µM. Further, the TGI in the test on ACHN renal is 93.4 µM; in the test on CAKI-1 renal it was greater than 100 µM; in the test with K-562 leukemia, 39.4 µM; in the test with MDA-MB-231 breast it was 45.2 µM; with PC-3 prostate, greater than 100 µM; in the test on SK-MEL-28 melanoma, 30.2 µM. The TGI with SK-MEL-5 melanoma came to 30.3 µM; in the test on T-47D breast, 86.5 µM; in the test with U251 CNS, 72.1 µM; in the test on UACC-257 melanoma, 33.3 µM.

Consider `Clc1ccc(/C=C/c2ccc3ccccc3n2)cc1`, for which the GI50 in the test on ACHN renal was 4.82 µM; in the test with CAKI-1 renal, 2.29 µM; in the test with K-562 leukemia, 0.439 µM; in the test on MDA-MB-231 breast, 2.3 µM; in the test with PC-3 prostate it was 1.74 µM; in the test with SK-MEL-28 melanoma, 3.18 µM. For the same molecule, the GI50 with SK-MEL-5 melanoma is 0.551 µM; with T-47D breast, 5.16 µM; in the test with U251 CNS it was 0.441 µM; with UACC-257 melanoma it was 1.83 µM. Also, the TGI in the test with ACHN renal is greater than 100 µM; with CAKI-1 renal it was greater than 57.9 µM; in the test with K-562 leukemia, greater than 100 µM; in the test with MDA-MB-231 breast, greater than 100 µM; with PC-3 prostate, greater than 100 µM; in the test with SK-MEL-28 melanoma, greater than 100 µM. In addition, the TGI in the test with SK-MEL-5 melanoma, in the test on T-47D breast, with U251 CNS and in the test with UACC-257 melanoma was greater than 100 µM in each case.

For the molecule `CCCN(CCC)c1ccc(C=O)c(Cl)c1`, the GI50 is 31.7 µM in the test with ACHN renal; 15.1 µM in the test on CAKI-1 renal; 26.4 µM with K-562 leukemia; 18.9 µM with MDA-MB-231 breast; 29.1 µM in the test on PC-3 prostate; 20 µM in the test on SK-MEL-28 melanoma. Besides, the GI50 in the test on SK-MEL-5 melanoma was 14.8 µM; with T-47D breast it was 0.375 µM; in the test on U251 CNS, 6.6 µM; in the test on UACC-257 melanoma it was 0.273 µM. For the same molecule, the TGI with ACHN renal is greater than 100 µM; in the test on CAKI-1 renal it was greater than 66.9 µM; in the test on K-562 leukemia it was greater than 100 µM; in the test on MDA-MB-231 breast it was 43.7 µM; in the test on PC-3 prostate it was greater than 100 µM; in the test on SK-MEL-28 melanoma, 68.9 µM. The TGI with SK-MEL-5 melanoma turned out to be 28.6 µM; in the test with T-47D breast, 5.1 µM; with U251 CNS, 29.9 µM; in the test with UACC-257 melanoma, 0.979 µM.

In the case of `CCOC(=O)c1sc(-c2ccc(OS(=O)(=O)C[C@]34CCC(CC3=O)C4(C)C)c(C=O)c2)nc1C`, the GI50 with ACHN renal was 1.3 µM; with CAKI-1 renal, 0.667 µM; in the test on K-562 leukemia it was 0.753 µM; with MDA-MB-231 breast, 1.03 µM; with PC-3 prostate, 1.4 µM; with SK-MEL-28 melanoma, 0.982 µM. For the same molecule, the GI50 with SK-MEL-5 melanoma is 0.877 µM; with T-47D breast, 0.78 µM; with U251 CNS it was 0.694 µM; in the test with UACC-257 melanoma it was 1.26 µM. In addition, the TGI was 3.71 µM with ACHN renal; 2.67 µM in the test with CAKI-1 renal; greater than 13.5 µM in the test on K-562 leukemia; 2.66 µM in the test with MDA-MB-231 breast; greater than 50 µM with PC-3 prostate; 2.12 µM with SK-MEL-28 melanoma. Further, the TGI worked out at 1.59 µM in the test with SK-MEL-5 melanoma, 2.46 µM with T-47D breast, 1.43 µM in the test on U251 CNS and 3.66 µM in the test on UACC-257 melanoma.

As to `COc1cc(F)ccc1-c1cc(Nc2cc(CS(C)(=N)=O)ccn2)ncc1F` (centres undefined), the GI50 was 0.0371 µM in the test on ACHN renal; 0.0438 µM with CAKI-1 renal; 0.264 µM in the test on K-562 leukemia; 0.0974 µM with MDA-MB-231 breast; 0.0451 µM in the test on PC-3 prostate; 0.102 µM in the test with SK-MEL-28 melanoma. Further, the GI50 is 0.0385 µM in the test with SK-MEL-5 melanoma, 0.121 µM in the test on T-47D breast, 0.0683 µM in the test with U251 CNS and 0.261 µM in the test on UACC-257 melanoma. Also, the TGI is greater than 100 µM with ACHN renal; greater than 100 µM in the test on CAKI-1 renal; greater than 100 µM with K-562 leukemia; greater than 100 µM in the test on MDA-MB-231 breast; greater than 47.2 µM in the test with PC-3 prostate; 5.44 µM in the test on SK-MEL-28 melanoma. Also, the TGI was 14.3 µM in the test with SK-MEL-5 melanoma, greater than 100 µM with U251 CNS and greater than 100 µM with UACC-257 melanoma.

Consider `CC(C)(C)NCC(O)COc1c(Br)c(Br)c(Br)c2c1OC(C)(C)C2` (centres undefined), for which the GI50 with ACHN renal is 1.9 µM; in the test with CAKI-1 renal it was 1.71 µM; in the test on K-562 leukemia it was 1.54 µM; with MDA-MB-231 breast, 1.54 µM; in the test on PC-3 prostate, 1.66 µM; in the test on SK-MEL-28 melanoma, 1.81 µM. Moreover, the GI50 in the test on SK-MEL-5 melanoma is 1.55 µM; with T-47D breast, 1.65 µM; in the test on U251 CNS, 1.92 µM; in the test on UACC-257 melanoma it was 1.99 µM. For the same molecule, the TGI in the test on ACHN renal was found to be 3.35 µM; in the test on CAKI-1 renal, 3.22 µM; in the test with K-562 leukemia, 2.94 µM; with MDA-MB-231 breast it was 3.01 µM; in the test on PC-3 prostate it was 3.18 µM; in the test on SK-MEL-28 melanoma it was 3.29 µM. Further, the TGI in the test on SK-MEL-5 melanoma stood at 2.89 µM; with T-47D breast, 3.59 µM; in the test with U251 CNS it was 3.41 µM; in the test on UACC-257 melanoma, 3.91 µM.

For the molecule `C=C1C(=O)O[C@H]2[C@H]1CC/C(COC(=O)N[C@H]1C[C@H](O[C@H]3C[C@](O)(C(=O)CO)Cc4c(O)c5c(c(O)c43)C(=O)c3c(OC)cccc3C5=O)O[C@@H](C)[C@H]1O)=C\CC[C@@]1(C)O[C@@H]21`, the GI50 with ACHN renal was 41.3 µM; in the test on CAKI-1 renal, 7.76 µM; with K-562 leukemia it was 1.58 µM; in the test with MDA-MB-231 breast, 3.21 µM; in the test with PC-3 prostate, 7.8 µM; in the test on SK-MEL-28 melanoma, 1.51 µM. Also, the GI50 with SK-MEL-5 melanoma was 8.1 µM; in the test on T-47D breast, 2.27 µM; in the test with U251 CNS, 4.87 µM; with UACC-257 melanoma, 7.17 µM. Moreover, the TGI in the test with ACHN renal is greater than 50 µM; in the test on CAKI-1 renal, greater than 50 µM; with K-562 leukemia, 11.4 µM; in the test with MDA-MB-231 breast, 10.7 µM; with PC-3 prostate, 30.8 µM; in the test with SK-MEL-28 melanoma, 4.67 µM. Further, the TGI came out at 18.1 µM in the test with SK-MEL-5 melanoma, 10.4 µM with T-47D breast, 11.2 µM in the test with U251 CNS and 13.7 µM in the test on UACC-257 melanoma.
